Measured values reported in ChEMBL document CHEMBL1133677, “Carbonic anhydrase and matrix metalloproteinase inhibitors: sulfonylated amino acid hydroxamates with MMP inhibitory properties act as efficient inhibitors of CA isozymes I, II, and IV, and N-hydroxysulfonamides inhibit both these zinc enzymes” (J Med Chem, 2000).

What was measured:
Carbonic anhydrase 4 = molecular target: T1, Carbonic anhydrase 4 (Bos taurus, UniProt Q95323)
T1 sequence (Q95323 whole entry): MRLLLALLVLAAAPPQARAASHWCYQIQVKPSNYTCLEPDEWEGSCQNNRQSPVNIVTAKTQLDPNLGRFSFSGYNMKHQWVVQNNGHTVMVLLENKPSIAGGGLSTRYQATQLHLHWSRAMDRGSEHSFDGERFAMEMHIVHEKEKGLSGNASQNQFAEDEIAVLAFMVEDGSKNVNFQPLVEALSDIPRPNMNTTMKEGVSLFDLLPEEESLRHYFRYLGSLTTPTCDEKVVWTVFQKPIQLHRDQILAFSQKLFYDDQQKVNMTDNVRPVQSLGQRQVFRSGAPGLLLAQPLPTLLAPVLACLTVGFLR

Carbonic anhydrase 2 = Carbonic anhydrase 2 (Homo sapiens, UniProt P00918)
Carbonic anhydrase 1 = Carbonic anhydrase 1 (Homo sapiens, UniProt P00915)
Carbonic anhydrase 1, sequence (P00915 whole entry): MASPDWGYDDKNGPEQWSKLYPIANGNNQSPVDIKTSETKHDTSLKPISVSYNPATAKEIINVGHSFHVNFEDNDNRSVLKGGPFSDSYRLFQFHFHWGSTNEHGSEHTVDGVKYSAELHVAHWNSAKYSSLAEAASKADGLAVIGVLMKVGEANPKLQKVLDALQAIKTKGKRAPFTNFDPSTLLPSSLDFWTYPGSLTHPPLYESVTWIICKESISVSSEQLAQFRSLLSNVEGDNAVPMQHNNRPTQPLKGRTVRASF

Ki (Carbonic anhydrase 4)	Ki (Carbonic anhydrase 2)	Ki (Carbonic anhydrase 1)	Compound
39 nM	5 nM	50 nM	COc1ccc(S(=O)(=O)NC(CC(C)C)C(=O)NO)cc1 (centres undefined)
136 nM	120 nM	195 nM	COc1ccc(S(=O)(=O)N(Cc2ccccc2)C(C)C(=O)NO)cc1 (centres undefined)
127 nM	70 nM	51000 nM	Cc1ccc(S(=O)(=O)NO)cc1
136 nM	44 nM	41000 nM	COc1ccc(S(=O)(=O)NO)cc1N
13 nM	0.8 nM	30000 nM	O=S(=O)(NO)c1c(F)c(F)c(F)c(F)c1F
> 200 nM	> 200 nM	> 200 nM	COc1ccc(S(=O)(=O)N(Cc2ccc([N+](=O)[O-])cc2)C(C)C(=O)NO)cc1 (centres undefined)
42 nM	36 nM	90 nM	O=C(CN(Cc1ccccc1)S(=O)(=O)c1c(F)c(F)c(F)c(F)c1F)NO
75 nM	56 nM	100 nM	CC(C)CC(C(=O)NO)N(Cc1ccccc1)S(=O)(=O)c1c(F)c(F)c(F)c(F)c1F (centres undefined)
> 200 nM	> 200 nM	> 200 nM	COc1ccc(S(=O)(=O)N(Cc2ccccc2Cl)C(C)C(=O)NO)cc1 (centres undefined)
13 nM	11 nM	8 nM	CC(C)C(NS(=O)(=O)c1c(F)c(F)c(F)c(F)c1F)C(=O)NO (centres undefined)
29 nM	32 nM	30 nM	COc1ccc(S(=O)(=O)NCC(=O)NO)cc1
100 nM	85 nM	105 nM	O=C(CN(Cc1ccccc1)S(=O)(=O)C(F)(F)C(F)(F)C(F)(F)C(F)(F)F)NO
107 nM	92 nM	121 nM	CC(C(=O)NO)N(Cc1ccccc1)S(=O)(=O)C(F)(F)C(F)(F)C(F)(F)C(F)(F)F (centres undefined)
45 nM	13 nM	15000 nM	O=S(=O)(NO)c1ccc(I)cc1
16 nM	30 nM	20000 nM	O=S(=O)(NO)C(F)(F)F
43 nM	38 nM	84 nM	CC(C(=O)NO)N(Cc1ccccc1)S(=O)(=O)c1c(F)c(F)c(F)c(F)c1F (centres undefined)
140 nM	170 nM	> 200 nM	COc1ccc(S(=O)(=O)N(CC(=O)NO)Cc2ccccc2[N+](=O)[O-])cc1
156 nM	62 nM	72000 nM	Cc1cc(C)c(S(=O)(=O)NO)c(C)c1
55 nM	37 nM	62000 nM	Nc1ccc(S(=O)(=O)NO)cc1
19 nM	11 nM	10 nM	CC(C)CC(NS(=O)(=O)c1c(F)c(F)c(F)c(F)c1F)C(=O)NO (centres undefined)
16 nM	1.1 nM	33000 nM	O=S(=O)(NO)c1cccc(C(F)(F)F)c1

Ki (Carbonic anhydrase 4)	Ki (Carbonic anhydrase 2)	Ki (Carbonic anhydrase 1)	Compound
90 nM	19 nM	15000 nM	O=S(=O)(NO)c1ccc(F)cc1
48 nM	45 nM	88 nM	CC(C)C(C(=O)NO)N(Cc1ccccc1)S(=O)(=O)c1c(F)c(F)c(F)c(F)c1F (centres undefined)
139 nM	116 nM	180 nM	CC(C)CC(C(=O)NO)N(Cc1ccccc1)S(=O)(=O)C(F)(F)C(F)(F)C(F)(F)C(F)(F)F (centres undefined)
290 nM	40 nM	12000 nM	CN(C)S(=O)(=O)NO
21 nM	9 nM	1600 nM	O=S(=O)(NO)C(F)(F)C(F)(F)C(F)(F)C(F)(F)C(F)(F)C(F)(F)C(F)(F)C(F)(F)F
> 200 nM	> 200 nM	> 200 nM	CC(C(=O)NO)N(Cc1ccc([N+](=O)[O-])cc1)S(=O)(=O)c1c(F)c(F)c(F)c(F)c1F (centres undefined)
56 nM	4.7 nM		CS(=O)(=O)NO
13 nM	5 nM	15000 nM	O=[N+]([O-])c1ccccc1S(=O)(=O)NO
185 nM	> 200 nM	> 200 nM	COc1ccc(S(=O)(=O)N(Cc2ccccc2)C(C(=O)NO)C(C)C)cc1 (centres undefined)
190 nM	> 200 nM	> 200 nM	COc1ccc(S(=O)(=O)N(Cc2ccccc2)C(CC(C)C)C(=O)NO)cc1 (centres undefined)
20 nM	15 nM	29 nM	CC(C)C(NS(=O)(=O)C(F)(F)C(F)(F)C(F)(F)C(F)(F)F)C(=O)NO (centres undefined)
30 nM	18 nM		CC(C)CC(NS(=O)(=O)C(F)(F)C(F)(F)C(F)(F)C(F)(F)F)C(=O)NO (centres undefined)
39 nM	18 nM	38000 nM	O=S(=O)(NO)c1ccc(Br)cc1
> 200 nM	160 nM	> 200 nM	CC(C(=O)NO)N(Cc1ccccc1[N+](=O)[O-])S(=O)(=O)c1c(F)c(F)c(F)c(F)c1F (centres undefined)
70 nM	9 nM	57000 nM	O=[N+]([O-])c1ccc(S(=O)(=O)NO)cc1
145 nM	120 nM	> 200 nM	COc1ccc(S(=O)(=O)N(CC(=O)NO)Cc2ccccc2)cc1
460 nM	190 nM	19000 nM	O=S(=O)(Cc1ccccc1)NO
49 nM	74 nM	127 nM	O=C(CN(Cc1ccccc1[N+](=O)[O-])S(=O)(=O)c1c(F)c(F)c(F)c(F)c1F)NO
10 nM	8 nM	7 nM	CC(NS(=O)(=O)c1c(F)c(F)c(F)c(F)c1F)C(=O)NO (centres undefined)
> 200 nM	> 200 nM	> 200 nM	CC(C(=O)NO)N(Cc1ccccc1Cl)S(=O)(=O)c1c(F)c(F)c(F)c(F)c1F (centres undefined)
110 nM	51 nM	68000 nM	COc1ccc(S(=O)(=O)NO)cc1

Ki (Carbonic anhydrase 4)	Ki (Carbonic anhydrase 2)	Ki (Carbonic anhydrase 1)	Compound
74 nM	26 nM	18000 nM	O=S(=O)(NO)c1ccccc1
12 nM	0.9 nM	25000 nM	O=C(O)c1ccccc1S(=O)(=O)NO
> 200 nM	> 200 nM	> 200 nM	CC(C(=O)NO)N(Cc1ccc([N+](=O)[O-])cc1)S(=O)(=O)C(F)(F)C(F)(F)C(F)(F)C(F)(F)F (centres undefined)
136 nM	118 nM	> 200 nM	O=C(CN(Cc1ccc([N+](=O)[O-])cc1)S(=O)(=O)C(F)(F)C(F)(F)C(F)(F)C(F)(F)F)NO
130 nM	107 nM	150 nM	O=C(CN(Cc1ccc([N+](=O)[O-])cc1)S(=O)(=O)c1c(F)c(F)c(F)c(F)c1F)NO
124 nM	108 nM	140 nM	CC(C)C(C(=O)NO)N(Cc1ccccc1)S(=O)(=O)C(F)(F)C(F)(F)C(F)(F)C(F)(F)F (centres undefined)
12 nM	4 nM	17000 nM	O=[N+]([O-])c1ccc(S(=O)(=O)NO)cc1Cl
> 200 nM	> 200 nM	> 200 nM	CC(C(=O)NO)N(Cc1ccccc1[N+](=O)[O-])S(=O)(=O)C(F)(F)C(F)(F)C(F)(F)C(F)(F)F (centres undefined)
24 nM	5 nM	17000 nM	O=[N+]([O-])c1cccc(S(=O)(=O)NO)c1
10 nM	8 nM	7 nM	O=C(CNS(=O)(=O)c1c(F)c(F)c(F)c(F)c1F)NO
16 nM	15 nM	18 nM	O=C(CNS(=O)(=O)C(F)(F)C(F)(F)C(F)(F)C(F)(F)F)NO
> 200 nM	> 200 nM	> 200 nM	CC(C(=O)NO)N(Cc1ccccc1Cl)S(=O)(=O)C(F)(F)C(F)(F)C(F)(F)C(F)(F)F (centres undefined)
30 nM	35 nM	32 nM	COc1ccc(S(=O)(=O)NC(C)C(=O)NO)cc1 (centres undefined)
17 nM	16 nM	21 nM	CC(NS(=O)(=O)C(F)(F)C(F)(F)C(F)(F)C(F)(F)F)C(=O)NO (centres undefined)
120 nM	21 nM	27000 nM	O=S(=O)(NO)c1ccc(Cl)cc1
27 nM	15 nM	1800 nM	O=S(=O)(NO)C(F)(F)C(F)(F)C(F)(F)C(F)(F)F
> 200 nM	> 200 nM	> 200 nM	COc1ccc(S(=O)(=O)N(Cc2ccccc2[N+](=O)[O-])C(C)C(=O)NO)cc1 (centres undefined)
40 nM	29 nM	40000 nM	CC(=O)Nc1ccc(S(=O)(=O)NO)cc1
38 nM	39 nM	33 nM	COc1ccc(S(=O)(=O)NC(C(=O)NO)C(C)C)cc1 (centres undefined)

Compound	Ki (Carbonic anhydrase 4)	Ki (Carbonic anhydrase 2)	Ki (Carbonic anhydrase 1)
O=S(=O)(NO)C(Cl)(Cl)Cl	210 nM	150 nM	23000 nM
